Results reported in patent publication US11596650B2, “Composition and method for the treatment of type 2 diabetes” (Vector Vitale IP LLC, priority 2019, dated 2023).

Assay: Accumulation of metals in liver and kidney tissues, intraperitoneal administration to intact rats
Type: in vivo, rat
Procedure: Animals are placed in cages, 4 per cage, with free access to food/water. […] After the last injection, a half of the animals are maintained on hunger (for 12 hours) with free access to water. Upon expiration of this time period, the animals are taken out of the experiment. The second half of the animals continues to have free access to food/water for a further 7 days. On day 6 after the last injection, the animals are maintained on hunger (for 12 hours) with free access to water. Upon expiration of this time period, the animals are taken out of the experiment.
The total kidney, liver and muscle homogenates were prepared as follows. Organ excision and homogenization were carried out at a temperature of 1-4° C. […] The volume of the used buffer in ml was 5 times larger than the mass of isolated organs in grams. The isolated liver was perfused with chilled saline (0.9% NaCl) via the portal vein using a syringe. The minced liver was transferred to a homogenizer with a finely ground Teflon pestle and homogenized in chilled buffer. An isolated pair of kidneys was perfused with chilled saline, released from adipose tissue and minced with scissors. The minced tissue was transferred to a homogenizer with a finely ground Teflon pestle and homogenized in chilled buffer. The total kidney and liver homogenates were centrifuged at 600 g for 15 minutes. […]

CC(=O)[O-].CC(=O)[O-].[Zn+2] [Zn acetate, Zinc acetate]
Zinc in the kidney and liver tissues (day 1 and day 7 after discontinuation of the substances): significantly increased
All other analyzed metals (manganese and copper) in kidney and liver tissues (intact rats, intraperitoneal): within the same concentrations as in the control group
